Drawing on ChEMBL document CHEMBL5537170, “Design, Synthesis, and Anti-Osteoporotic Characterization of Arginine N-Glycosylated Teriparatide Analogs via the Silver-catalyzed Solid-Phase Glycosylation Strategy” (J Med Chem, 2024), this text covers Activity for eight compounds.

Each structure is given as a SMILES string. *1 amine or outer side, *2 acyl side, *3 side chain or, on linkers, in order; H or OH if unused. Where a SMILES comes first, the peptide text is derived from it. [ ]: non-standard residue; d: D form. X1 = N=C(NCCC[C@H](N[*:1])C(=O)[*:2])N[C@@H]1O[C@H](CO)[C@@H](O)[C@H](O)[C@H]1O; X7 = N=C(NCCC[C@H](N[*:1])C(=O)[*:2])N[C@H]1O[C@H](CO)[C@@H](O)[C@H](O)[C@@H]1O; X4 = N=C(NCCC[C@H](N[*:1])C(=O)[*:2])N[C@@H]1O[C@H](CO)[C@H](O)[C@H](O)[C@H]1O

This data set can be described thus: Cytotoxicity against C57BL/6 mouse Pre-Osteoblast cells assessed as cell death upto 5 uM incubated for 4 days by CCK-8 assay. It is filed as toxicity, cell-based. To be noted: 96 h, time 4 day.
Turning to `CC[C@H](C)[C@H](NC(=O)[C@H](CCC(=O)O)NC(=O)[C@H](CO)NC(=O)[C@@H](NC(=O)[C@H](CO)NC(C)=O)C(C)C)C(=O)N[C@@H](CCC(N)=O)C(=O)N[C@@H](CC(C)C)C(=O)N[C@@H](CCSC)C(=O)N[C@@H](Cc1cnc[nH]1)C(=O)N[C@@H](CC(N)=O)C(=O)N[C@@H](CC(C)C)C(=O)NCC(=O)N[C@@H](CCCCN)C(=O)N[C@@H](Cc1cnc[nH]1)C(=O)N[C@@H](CC(C)C)C(=O)N[C@@H](CC(N)=O)C(=O)N[C@@H](CO)C(=O)N[C@@H](CCSC)C(=O)N[C@@H](CCC(=O)O)C(=O)N[C@@H](CCCNC(=N)N[C@@H]1O[C@H](CO)[C@@H](O)[C@H](O)[C@H]1NC(C)=O)C(=O)N[C@H](C(=O)N[C@@H](CCC(=O)O)C(=O)N[C@@H](Cc1c[nH]c2ccccc12)C(=O)N[C@@H](CC(C)C)C(=O)N[C@@H](CCCNC(=N)N)C(=O)N[C@@H](CCCCN)C(=O)N[C@@H](CCCCN)C(=O)N[C@@H](CC(C)C)C(=O)N[C@@H](CCC(N)=O)C(=O)N[C@@H](CC(=O)O)C(=O)N[C@H](C(=O)N[C@@H](Cc1cnc[nH]1)C(=O)N[C@@H](CC(N)=O)C(=O)N[C@@H](Cc1ccccc1)C(N)=O)C(C)C)C(C)C`, the Activity result is given as “Non-Toxic”.

On to `CC[C@H](C)[C@H](NC(=O)[C@H](CCC(=O)O)NC(=O)[C@H](CO)NC(=O)[C@@H](NC(=O)[C@H](CO)NC(C)=O)C(C)C)C(=O)N[C@@H](CCC(N)=O)C(=O)N[C@@H](CC(C)C)C(=O)N[C@@H](CCSC)C(=O)N[C@@H](Cc1cnc[nH]1)C(=O)N[C@@H](CC(N)=O)C(=O)N[C@@H](CC(C)C)C(=O)NCC(=O)N[C@@H](CCCCN)C(=O)N[C@@H](Cc1cnc[nH]1)C(=O)N[C@@H](CC(C)C)C(=O)N[C@@H](CC(N)=O)C(=O)N[C@@H](CO)C(=O)N[C@@H](CCSC)C(=O)N[C@@H](CCC(=O)O)C(=O)N[C@@H](CCCNC(=N)N[C@@H]1O[C@H](CO)[C@@H](O)[C@H](O)[C@H]1O)C(=O)N[C@H](C(=O)N[C@@H](CCC(=O)O)C(=O)N[C@@H](Cc1c[nH]c2ccccc12)C(=O)N[C@@H](CC(C)C)C(=O)N[C@@H](CCCNC(=N)N[C@@H]1O[C@H](CO)[C@@H](O)[C@H](O)[C@H]1O)C(=O)N[C@@H](CCCCN)C(=O)N[C@@H](CCCCN)C(=O)N[C@@H](CC(C)C)C(=O)N[C@@H](CCC(N)=O)C(=O)N[C@@H](CC(=O)O)C(=O)N[C@H](C(=O)N[C@@H](Cc1cnc[nH]1)C(=O)N[C@@H](CC(N)=O)C(=O)N[C@@H](Cc1ccccc1)C(N)=O)C(C)C)C(C)C` (Ac-SVSEIQLMHNLGKHLNSME[X1]VEWL[X1]KKLQDVHNF-NH2), for which the Activity entry was “Non-Toxic”.

As to `CC[C@H](C)[C@H](NC(=O)[C@H](CCC(=O)O)NC(=O)[C@H](CO)NC(=O)[C@@H](NC(=O)[C@H](CO)NC(C)=O)C(C)C)C(=O)N[C@@H](CCC(N)=O)C(=O)N[C@@H](CC(C)C)C(=O)N[C@@H](CCSC)C(=O)N[C@@H](Cc1cnc[nH]1)C(=O)N[C@@H](CC(N)=O)C(=O)N[C@@H](CC(C)C)C(=O)NCC(=O)N[C@@H](CCCCN)C(=O)N[C@@H](Cc1cnc[nH]1)C(=O)N[C@@H](CC(C)C)C(=O)N[C@@H](CC(N)=O)C(=O)N[C@@H](CO)C(=O)N[C@@H](CCSC)C(=O)N[C@@H](CCC(=O)O)C(=O)N[C@@H](CCCNC(=N)N[C@@H]1O[C@H](CO)[C@H](O)[C@H](O)[C@H]1O)C(=O)N[C@H](C(=O)N[C@@H](CCC(=O)O)C(=O)N[C@@H](Cc1c[nH]c2ccccc12)C(=O)N[C@@H](CC(C)C)C(=O)N[C@@H](CCCNC(=N)N[C@@H]1O[C@H](CO)[C@H](O)[C@H](O)[C@H]1O)C(=O)N[C@@H](CCCCN)C(=O)N[C@@H](CCCCN)C(=O)N[C@@H](CC(C)C)C(=O)N[C@@H](CCC(N)=O)C(=O)N[C@@H](CC(=O)O)C(=O)N[C@H](C(=O)N[C@@H](Cc1cnc[nH]1)C(=O)N[C@@H](CC(N)=O)C(=O)N[C@@H](Cc1ccccc1)C(N)=O)C(C)C)C(C)C` (Ac-SVSEIQLMHNLGKHLNSME[X4]VEWL[X4]KKLQDVHNF-NH2), the Activity result is “Non-Toxic”.

For the compound `CC[C@H](C)[C@H](NC(=O)[C@H](CCC(=O)O)NC(=O)[C@H](CO)NC(=O)[C@@H](NC(=O)[C@H](CO)NC(C)=O)C(C)C)C(=O)N[C@@H](CCC(N)=O)C(=O)N[C@@H](CC(C)C)C(=O)N[C@@H](CCSC)C(=O)N[C@@H](Cc1cnc[nH]1)C(=O)N[C@@H](CC(N)=O)C(=O)N[C@@H](CC(C)C)C(=O)NCC(=O)N[C@@H](CCCCN)C(=O)N[C@@H](Cc1cnc[nH]1)C(=O)N[C@@H](CC(C)C)C(=O)N[C@@H](CC(N)=O)C(=O)N[C@@H](CO)C(=O)N[C@@H](CCSC)C(=O)N[C@@H](CCC(=O)O)C(=O)N[C@@H](CCCNC(=N)N[C@@H]1O[C@H](CO)[C@H](O)[C@H](O)[C@H]1O)C(=O)N[C@H](C(=O)N[C@@H](CCC(=O)O)C(=O)N[C@@H](Cc1c[nH]c2ccccc12)C(=O)N[C@@H](CC(C)C)C(=O)N[C@@H](CCCNC(=N)N)C(=O)N[C@@H](CCCCN)C(=O)N[C@@H](CCCCN)C(=O)N[C@@H](CC(C)C)C(=O)N[C@@H](CCC(N)=O)C(=O)N[C@@H](CC(=O)O)C(=O)N[C@H](C(=O)N[C@@H](Cc1cnc[nH]1)C(=O)N[C@@H](CC(N)=O)C(=O)N[C@@H](Cc1ccccc1)C(N)=O)C(C)C)C(C)C`, the Activity result is recorded as “Non-Toxic”. The entry for `CC[C@H](C)[C@H](NC(=O)[C@H](CCC(=O)O)NC(=O)[C@H](CO)NC(=O)[C@@H](NC(=O)[C@H](CO)NC(C)=O)C(C)C)C(=O)N[C@@H](CCC(N)=O)C(=O)N[C@@H](CC(C)C)C(=O)N[C@@H](CCSC)C(=O)N[C@@H](Cc1cnc[nH]1)C(=O)N[C@@H](CC(N)=O)C(=O)N[C@@H](CC(C)C)C(=O)NCC(=O)N[C@@H](CCCCN)C(=O)N[C@@H](Cc1cnc[nH]1)C(=O)N[C@@H](CC(C)C)C(=O)N[C@@H](CC(N)=O)C(=O)N[C@@H](CO)C(=O)N[C@@H](CCSC)C(=O)N[C@@H](CCC(=O)O)C(=O)N[C@@H](CCCNC(=N)N[C@H]1O[C@H](CO)[C@@H](O)[C@H](O)[C@@H]1O)C(=O)N[C@H](C(=O)N[C@@H](CCC(=O)O)C(=O)N[C@@H](Cc1c[nH]c2ccccc12)C(=O)N[C@@H](CC(C)C)C(=O)N[C@@H](CCCNC(=N)N[C@H]1O[C@H](CO)[C@@H](O)[C@H](O)[C@@H]1O)C(=O)N[C@@H](CCCCN)C(=O)N[C@@H](CCCCN)C(=O)N[C@@H](CC(C)C)C(=O)N[C@@H](CCC(N)=O)C(=O)N[C@@H](CC(=O)O)C(=O)N[C@H](C(=O)N[C@@H](Cc1cnc[nH]1)C(=O)N[C@@H](CC(N)=O)C(=O)N[C@@H](Cc1ccccc1)C(N)=O)C(C)C)C(C)C` (Ac-SVSEIQLMHNLGKHLNSME[X7]VEWL[X7]KKLQDVHNF-NH2) is “Non-Toxic”; for `CC[C@H](C)[C@H](NC(=O)[C@H](CCC(=O)O)NC(=O)[C@H](CO)NC(=O)[C@@H](NC(=O)[C@H](CO)NC(C)=O)C(C)C)C(=O)N[C@@H](CCC(N)=O)C(=O)N[C@@H](CC(C)C)C(=O)N[C@@H](CCSC)C(=O)N[C@@H](Cc1cnc[nH]1)C(=O)N[C@@H](CC(N)=O)C(=O)N[C@@H](CC(C)C)C(=O)NCC(=O)N[C@@H](CCCCN)C(=O)N[C@@H](Cc1cnc[nH]1)C(=O)N[C@@H](CC(C)C)C(=O)N[C@@H](CC(N)=O)C(=O)N[C@@H](CO)C(=O)N[C@@H](CCSC)C(=O)N[C@@H](CCC(=O)O)C(=O)N[C@@H](CCCNC(=N)N)C(=O)N[C@H](C(=O)N[C@@H](CCC(=O)O)C(=O)N[C@@H](Cc1c[nH]c2ccccc12)C(=O)N[C@@H](CC(C)C)C(=O)N[C@@H](CCCNC(=N)N[C@@H]1O[C@H](CO)[C@@H](O[C@@H]2O[C@H](CO)[C@H](O)[C@H](O)[C@H]2O)[C@H](O)[C@H]1O)C(=O)N[C@@H](CCCCN)C(=O)N[C@@H](CCCCN)C(=O)N[C@@H](CC(C)C)C(=O)N[C@@H](CCC(N)=O)C(=O)N[C@@H](CC(=O)O)C(=O)N[C@H](C(=O)N[C@@H](Cc1cnc[nH]1)C(=O)N[C@@H](CC(N)=O)C(=O)N[C@@H](Cc1ccccc1)C(N)=O)C(C)C)C(C)C` it is “Non-Toxic”; for `CC[C@H](C)[C@H](NC(=O)[C@H](CCC(=O)O)NC(=O)[C@H](CO)NC(=O)[C@@H](NC(=O)[C@H](CO)NC(C)=O)C(C)C)C(=O)N[C@@H](CCC(N)=O)C(=O)N[C@@H](CC(C)C)C(=O)N[C@@H](CCSC)C(=O)N[C@@H](Cc1cnc[nH]1)C(=O)N[C@@H](CC(N)=O)C(=O)N[C@@H](CC(C)C)C(=O)NCC(=O)N[C@@H](CCCCN)C(=O)N[C@@H](Cc1cnc[nH]1)C(=O)N[C@@H](CC(C)C)C(=O)N[C@@H](CC(N)=O)C(=O)N[C@@H](CO)C(=O)N[C@@H](CCSC)C(=O)N[C@@H](CCC(=O)O)C(=O)N[C@@H](CCCNC(=N)N[C@@H]1O[C@H](CO)[C@@H](O[C@@H]2O[C@H](CO)[C@H](O)[C@H](O)[C@H]2O)[C@H](O)[C@H]1O)C(=O)N[C@H](C(=O)N[C@@H](CCC(=O)O)C(=O)N[C@@H](Cc1c[nH]c2ccccc12)C(=O)N[C@@H](CC(C)C)C(=O)N[C@@H](CCCNC(=N)N[C@@H]1O[C@H](CO)[C@@H](O[C@@H]2O[C@H](CO)[C@H](O)[C@H](O)[C@H]2O)[C@H](O)[C@H]1O)C(=O)N[C@@H](CCCCN)C(=O)N[C@@H](CCCCN)C(=O)N[C@@H](CC(C)C)C(=O)N[C@@H](CCC(N)=O)C(=O)N[C@@H](CC(=O)O)C(=O)N[C@H](C(=O)N[C@@H](Cc1cnc[nH]1)C(=O)N[C@@H](CC(N)=O)C(=O)N[C@@H](Cc1ccccc1)C(N)=O)C(C)C)C(C)C` it is “Non-Toxic”. `CC[C@H](C)[C@H](NC(=O)[C@H](CCC(=O)O)NC(=O)[C@H](CO)NC(=O)[C@@H](NC(=O)[C@H](CO)NC(C)=O)C(C)C)C(=O)N[C@@H](CCC(N)=O)C(=O)N[C@@H](CC(C)C)C(=O)N[C@@H](CCSC)C(=O)N[C@@H](Cc1cnc[nH]1)C(=O)N[C@@H](CC(N)=O)C(=O)N[C@@H](CC(C)C)C(=O)NCC(=O)N[C@@H](CCCCN)C(=O)N[C@@H](Cc1cnc[nH]1)C(=O)N[C@@H](CC(C)C)C(=O)N[C@@H](CC(N)=O)C(=O)N[C@@H](CO)C(=O)N[C@@H](CCSC)C(=O)N[C@@H](CCC(=O)O)C(=O)N[C@@H](CCCNC(=N)N)C(=O)N[C@H](C(=O)N[C@@H](CCC(=O)O)C(=O)N[C@@H](Cc1c[nH]c2ccccc12)C(=O)N[C@@H](CC(C)C)C(=O)N[C@@H](CCCNC(=N)N[C@@H]1O[C@H](CO)[C@@H](O)[C@H](O)[C@H]1NC(C)=O)C(=O)N[C@@H](CCCCN)C(=O)N[C@@H](CCCCN)C(=O)N[C@@H](CC(C)C)C(=O)N[C@@H](CCC(N)=O)C(=O)N[C@@H](CC(=O)O)C(=O)N[C@H](C(=O)N[C@@H](Cc1cnc[nH]1)C(=O)N[C@@H](CC(N)=O)C(=O)N[C@@H](Cc1ccccc1)C(N)=O)C(C)C)C(C)C`: the Activity entry is “Non-Toxic”.
